Test results as given in patent US10226455B2 (priority 2014, dated 2019).
Where two headings read alike, the source gives them in different places.

How the values were obtained:
[1] = tested on: multidrug resistant Haemonchus contortus isolate UGA2004 L3 stage larvae; settings: for inhibition of larval motility compared with verapamil: with IVR, 10 or 20 uM RTI-79, 20 uM RTI-176, 10 uM verapamil
Procedure: Each well contained a 300 uL solution containing approximately 75 L3 stage larvae, IVR, and pgp inhibitor or control. IVR was provided in serially diluted concentrations of 50, 25, 12.5, 6.25, 3.125, 1.56, 0.78 or 0.39 uM, to permit evaluation of the dose response to IVR in the presence of the pgp inhibitors. Inhibition of larval motility was determined by failure of the incubated larvea to move when stimulated by light exposure after incubation.

[2] = Time to maximal plasma concentration / tissue absorption after administration
Source text: In certain embodiments, the rifamycin, rifamycin derivative, rifampicin, rifampicin derivative, or pharmaceutically acceptable salt, hydrate, or prodrug thereof, or combination thereof, can be administered in a method that matches the pharmokinetics of the composition to that of the antiparasitic drug also administered to the recipient.

P-gp = settings: previously demonstrated; cited from earlier work
P. Falciparum [3] = experiment: In vitro inhibition of P. falciparum variants, DAPI fluorescence imaging assay in erythrocyte cultures; type: cell-based
Source text: Sensitivity of the P. Falciparum variants to (i.e. inhibition of the parasites by) RTI-79chloroquine, or rifamycin was quantitated via assay as previously described. Duffy, S. and V. M. Avery, Development and optimization of a novel 384-well anti-malarial imaging assay validated for high-throughput screening. Am J Trop Med Hyg, 2012. 86(1): p. 84-92. Inhibition of P. Falciparum with various concentrations of the inhibitors was quantified by measuring DAPI fluorescence of parasite DNA in erythrocyte cultures.
Decreased DAPI staining quantified as relative light units (“RLU”), is observed with parasite inhibition in the assays.

P. Falciparum [4] = settings: read-out: previously-reported IC50 of chloroquine, cited from earlier work
P. Falciparum [5] = experiment: Chloroquine sensitization in chloroquine-resistant P. Falciparum (survival of variants); type: cell-based
Source text: Quinine and quinine derivatives including chloroquine inhibit the Plasmodium parasites, including P. Falciparum, by accumulating in food vacuoles and causing accumulation of cytotoxic heme, thereby poisoning the parasite.

[6] = tested on: UGA2004 H. contortus isolate eggs; experiment: Larval development assay, sensitization to thiabendazole; set-up: species or system Haemonchus contortus
Procedure: TBZ was provided in a range of concentrations to permit evaluation of the dose response to TBZ in the presence of the pgp inhibitors. After incubation of the eggs for seven days, the number of stage 3 (“L3”) larvae that developed with each treatment was counted.

[7] = cited from earlier work

4-deoxy-3,4[2-spiro-[1-(isobutyloxycarbonyl)-piperidin-4-yl]]-(1H)-imidazo-(2,5-dihydro)rifamycin S [RTI-79]
inhibition of larval motility compared with verapamil [1]: more potent inhibition of larval motility | time to maximal plasma concentration [2]: ≤ 3 h | drug efflux from cells (P-gp): prevent drug efflux from cells | inhibition of strains (DAPI staining, RLU) (P. Falciparum [3]; all strains, FIGS. 1A-1C): Dose-dependent inhibition of all strains | IC50 (P. Falciparum [3]; all variants (3D7, Dd2, K1; chloroquine-sensitive and -resistant), read-out: observed IC50): ~625 nM

CCN(CC)CCCC(C)Nc1ccnc2cc(Cl)ccc12 (centres unmarked) [chloroquine]
IC50 (P. Falciparum [4]; chloroquine-resistant Dd2 variant): 100 nM | IC50 (P. Falciparum [4]; chloroquine-resistant K1 variant): 255 nM | IC50 (P. Falciparum [4]; chloroquine-sensitive 3D7 variant): ~10 nM | parasite survival (P. Falciparum [5]; 3D7 variant, chloroquine at or greater than IC50): death of the parasite | parasite survival (P. Falciparum [5]; chloroquine-resistant variants, chloroquine alone at or below the 3D7 IC50): survive

11-deoxy-11-amino-4-deoxy-3,4[2-spiro-[1-(isobutyloxycarbonyl)-piperidin-4-yl]]-(1H)-imidazo-(2,5-dihydro)rifamycin S [RTI-176]
shift of IVR dose response curve ([1]; relative to the 1% DMSO control, FIG. 3A): shifted the IVR dose response curve to the left | inhibition of larval motility compared with verapamil [1]: more potent inhibition of larval motility | shift of TBZ dose response curve ([6]; relative to both verapamil and the 1% DMSO control, FIG. 3B): shifted the TBZ dose response curve to the left | shift of the IC50 of TBZ ([6]; seven days incubation, relative to control and verapamil): 3.79 fold

CO[C@H]1/C=C/O[C@@]2(C)Oc3c(C)c(O)c4c(c3C2=O)C2=NC3(CCN(CC(C)C)CC3)NC2=C(NC(=O)/C(C)=C\C=C\[C@H](C)[C@H](O)[C@@H](C)[C@@H](O)[C@@H](C)[C@H](OC(C)=O)[C@@H]1C)C4=O [rifabutin]
initial half-life of plasma elimination ([7]; biphasic elimination): approximately 4 hours | mean (±SD) peak plasma concentration (Cmax) ([7]; in vivo, po, 300 mg): 375 (±267) ng/mL | peak plasma concentration (Cmax), range ([7]; in vivo, po, 300 mg): 141 to 1033 ng/mL
